± gives the standard deviation.
Experiments:
[1] = chemical recovery from spiked human plasma; higher = better extraction; conditions: pooled human plasma
[2] = chemical recovery by SPE of plasma after PDMS sampling; higher = better extraction; conditions: pooled human plasma, extraction method: HLB SPE of plasma after PES
[3] = chemical recovery into PDMS from spiked human plasma; higher = better extraction; conditions: pooled human plasma, extraction method: PES with PDMS
[4] = extraction method: SPE only (HLB 96-well), PES comparison experiment
[5] = extraction method: solvent precipitation (ACN + hexane)
[6] = extraction method: PES+SPE (3 d PDMS equilibration then HLB SPE)
[7] = extraction method: SPE only (HLB 96-well)
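Throughout, for chemical recovery by SPE of plasma after PDMS sampling: over 400 spiked chemicals quantified by LC-HRMS or GC-HRMS via internal standard calibration, recovery relative to spike mix added to unspiked plasma extract to correct matrix effects.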

SMILES | chemical recovery [1, 4] [%] | chemical recovery [1, 5] [%] | chemical recovery by SPE of plasma ([2]; equilibration time (d): 1) [%] | chemical recovery by SPE of plasma ([2]; equilibration time (d): 3) [%] | chemical recovery by SPE of plasma ([2]; equilibration time (d): 6) [%] | chemical recovery [1, 6] [%] | chemical recovery [1, 7] [%] | chemical recovery into PDMS ([3]; equilibration time (d): 1) [%] | chemical recovery into PDMS ([3]; equilibration time (d): 3) [%] | chemical recovery into PDMS ([3]; equilibration time (d): 6) [%]
CCN(CCCCOC(=O)c1ccc(OC)c(OC)c1)C(C)Cc1ccc(OC)cc1 (configuration not stated) [Mebeverine] | 38.1 ± 4.5 | 69.6 ± 4.1 | 0.287 ± 0.15 | 0.295 ± 0.096 | 0.145 ± 0.0059 |  |  |  |  | 
O=C(O)C(F)(F)C(F)(F)C(F)(F)F [Perfluorobutanoic acid] | 41.2 ± 3.3 | 73 ± 7.5 | 24.1 ± 6 | 23.9 ± 1.9 | 23.3 ± 8.1 | 26.4 ± 3.3 | 23.3 ± 2.6 |  |  | 
CC(=O)c1cc2c(cc1C)C(C)(C)C(C)C2(C)C (configuration not stated) [Phantolide] |  |  |  |  |  |  |  | 32.9 ± 0.97 | 37.4 ± 3.8 | 34.1 ± 3.6
O=S(=O)(O)c1cccc2ccc(O)cc12 [2-Naphthol-8-sulfonic acid] | 44.7 ± 5.6 | 74.1 ± 3.9 |  | 47.9 ± 0.58 | 45 ± 6.4 |  | 61.3 ± 20 |  |  | 
COc1ccc2cc(C(C)C(=O)O)ccc2c1 (configuration not stated) [Naproxen] | 73.3 ± 9.3 | 70.2 ± 4.7 |  | 36.6 ± 5.5 | 36.5 ± 9.1 | 66 ± 2.3 | 63.8 ± 1.9 |  |  | 
COc1c(C)c2c(c(O)c1C/C=C(\C)CCC(=O)O)C(=O)OC2 [Mycophenolic acid] | 53.5 ± 4.5 | 70.9 ± 5.3 | 48.6 ± 4.3 | 53 ± 2.7 | 46.3 ± 2 | 44.01 ± 0.38 | 45.5 ± 3.8 |  |  | 
Clc1ccc(Cl)c(-c2cc(Cl)ccc2Cl)c1 [PCB52] | 16.2 ± 3.2 |  | 1.19 ± 0.83 | 1.25 ± 0.28 | 1.09 ± 0.3 | 48.5 ± 8.4 | 3.67 ± 0.85 |  |  | 
COc1ccc2c(c1)c(CC(=O)O)c(C)n2C(=O)c1ccc(Cl)cc1 [Indometacin] | 31 ± 6 |  |  | 41.1 ± 4.4 | 35.8 ± 3.6 | 33.6 ± 5.2 | 33.3 ± 1.8 |  |  | 
CCCSc1ccc2[nH]c(NC(=O)OC)nc2c1 [Albendazole] | 37.8 ± 5.9 | 59.7 ± 5.1 | 5.86 ± 0.39 | 3.53 ± 0.36 | 2.28 ± 0.42 | 3.61 ± 0.98 | 35.7 ± 3.7 |  |  | 
O=c1[nH]c2ccccc2n1CCCN1CCC(n2c(=O)[nH]c3cc(Cl)ccc32)CC1 [Domperidone] | 44.6 ± 4.9 |  | 44.4 ± 5.1 | 46.3 ± 3.7 | 42.3 ± 4.4 |  |  |  |  | 
c1ccc2c(c1)ccc1ccccc12 [Phenanthrene] | 20.8 ± 2.2 |  | 2.82 ± 2.2 | 2.33 ± 0.82 | 3.01 ± 1.1 |  | 8.44 ± 0.76 |  |  | 
O=[N+]([O-])c1ccc(O)c([N+](=O)[O-])c1 [2,4-Dinitrophenol] | 59.8 ± 4.8 | 79.6 ± 6.8 | 49.4 ± 8.9 | 52 ± 3 | 50.9 ± 4.5 | 52.7 ± 7.5 | 48.7 ± 6.6 |  |  | 
CCCc1nc(C)c2c(=O)nc(-c3cc(S(=O)(=O)N4CCN(CC)CC4)ccc3OCC)[nH]n12 [Vardenafil] | 35.1 ± 8.2 |  | 13.4 ± 2.1 | 7.22 ± 1.1 | 4.01 ± 0.43 |  |  |  |  | 
C(=C/c1ccccc1)/c1ccccc1 [cis-Stilbene] | 3.65 ± 1.4 |  |  |  | 0.481 ± 2.9 |  | 3.93 ± 0.065 |  |  | 
c1ccc2c(c1)c1cccc3ccc4cccc2c4c31 [Benzo(e)pyrene] |  | 57.7 ± 6.1 | 1.45 ± 1.3 | 1.37 ± 1.2 | 1.06 ± 1.8 |  | 2.35 ± 0.68 |  |  | 
COc1cc(O)c(C(=O)c2ccccc2)cc1S(=O)(=O)O [Benzophenone-4] | 44.4 ± 4.8 | 72.2 ± 2.3 | 41 ± 11 | 48.7 ± 3.4 | 43.3 ± 4.4 | 45.5 ± 3.2 | 43.3 ± 3.8 |  |  | 
Nc1ccc(-c2ccc(N)cc2)cc1 [Benzidine] | 5.89 ± 3 | 38.3 ± 7.4 | 6.25 ± 0.9 | 6.11 ± 1.1 | 3.81 ± 0.98 | 0.64 ± 0.073 | 13.2 ± 2 |  |  | 
COC(=O)c1cc(C(=O)OC)cc(S(=O)(=O)O)c1 [Dimethyl-5-sulfoisophthalate] | 52.4 ± 4.3 | 46.7 ± 3.3 | 49.8 ± 6.7 | 54.2 ± 3.9 | 49.3 ± 4 | 44.6 ± 2.1 | 45.3 ± 3 |  |  | 
O=C1C2CC3C1C1(Cl)C(Cl)C4(Cl)C2C3C1(Cl)C4(Cl)Cl (configuration not stated) [Endrinketone] |  |  |  |  |  |  |  | 75.4 ± 13 | 90.3 ± 7 | 87.5 ± 2.9
Oc1nc(O)c2cn[nH]c2n1 [Oxypurinol] |  | 17 ± 2.7 |  | 1.02 ± 0.27 |  |  |  |  |  | 
CCc1ccc(CCOc2ccc(CC3SC(=O)NC3=O)cc2)nc1 (configuration not stated) [Pioglitazone] | 42.9 ± 6 |  | 45.8 ± 9.5 | 49.1 ± 3 | 47 ± 6.1 | 42.9 ± 3.5 | 48.6 ± 3.3 |  |  | 
CC[C@H]1OC(=O)C[C@@H](O)[C@H](C)[C@@H](O[C@@H]2O[C@H](C)[C@@H](O[C@H]3C[C@@](C)(O)[C@@H](O)[C@H](C)O3)[C@H](N(C)C)[C@H]2O)[C@@H](CC=O)C[C@@H](C)C(=O)/C=C/C(C)=C/[C@@H]1CO[C@@H]1O[C@H](C)[C@@H](O)[C@@H](OC)[C@H]1OC [TylosinCH4O] | 33.9 ± 4.8 |  | 30.2 ± 3.2 | 35.1 ± 4.1 | 33 ± 2.3 |  |  |  |  | 
CC/C(=C(\c1ccccc1)c1ccc(OCCN(C)C)cc1)c1ccccc1 [Tamoxifen] | 38.5 ± 11 |  | 0.427 ± 0.08 | 0.167 ± 0.14 | 0.104 ± 0.056 | 0.265 ± 0.056 | 39.4 ± 8.3 |  |  | 
CCCCCCCCCCCC[N+](C)(C)[O-] [N,N-Dimethyldodecylamine N-oxide] | 43.2 ± 7.2 |  | 23.5 ± 3.5 | 17.7 ± 3 | 9.46 ± 8.3 |  | 55.1 ± 13 |  |  | 
O=C1Cc2cc(CCN3CCN(c4nsc5ccccc45)CC3)c(Cl)cc2N1 [Ziprasidone] | 41.5 ± 7.6 | 76 ± 9.8 | 37.1 ± 6.7 | 34 ± 4.3 | 25.3 ± 2.6 | 22.9 ± 2.4 | 38.7 ± 2.6 |  |  | 
CN(C)C(=O)C(CCN1CCC(O)(c2ccc(Cl)cc2)CC1)(c1ccccc1)c1ccccc1 [Loperamide] | 50.8 ± 7.4 | 73.1 ± 3.5 | 3.98 ± 0.26 | 3.93 ± 0.72 | 2.64 ± 0.097 |  |  |  |  | 
O=C(O)c1ccccc1O [Salicylic acid] | 69.7 ± 4.9 |  | 61.1 ± 13 | 78.9 ± 5.7 | 59.8 ± 3.9 |  |  |  |  | 
COc1nc(C)nc(NC(=O)NS(=O)(=O)c2ccccc2CCC(F)(F)F)n1 [Prosulfuron] | 42.7 ± 6.3 | 75.5 ± 0.94 | 48.5 ± 11 | 50.6 ± 4.8 | 45.3 ± 5.2 | 44.3 ± 3.7 | 37.9 ± 4.5 |  |  | 
CCCCNc1ccc(C(=O)OCCN(C)C)cc1 [Tetracain] |  |  | 0.00668 ± 0.0083 |  |  | 0.105 ± 0.0078 | 2.67 ± 1.9 |  |  | 
